# From patent US20230278972A1, “SUBSTITUTED HALOALKYL SULFONANILIDE HERBICIDES” (FMC Corporation, priority 2020, published 2023)
# How the values were obtained:
# Type in all cases: in vivo
# [1] = system: barnyardgrass (Echinochloa crus-galli); assay: Test A preemergence, barnyardgrass; conditions: Preemergence; for Barnyardgrass plant response rating: visual injury on 0 to 100 scale (0 no effect, 100 complete control), approximately 10 days; for Plant response rating, Barnyardgrass: 0 to 100 scale (0 no effect, 100 complete control)
# How it was run: (§1)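 Pots: loam soil/sand blend. Pre: directed soil spray at planting. Post: plants 2–10 cm, 1–2 leaf stage. Formulation: non-phytotoxic solvent + surfactant.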
# kochia (Bassia scoparia) [2] = assay: Test A preemergence, kochia; conditions: Preemergence; for Kochia plant response rating: visual injury on 0 to 100 scale (0 no effect, 100 complete control), approximately 10 days; for Plant response rating, Kochia: 0 to 100 scale (0 no effect, 100 complete control)
# How it was run: as §1
# [3] = system: ragweed (common ragweed, Ambrosia artemisiifolia); assay: Test A preemergence, ragweed; conditions: Preemergence; for Ragweed plant response rating: visual injury on 0 to 100 scale (0 no effect, 100 complete control), approximately 10 days; for Plant response rating, Ragweed: 0 to 100 scale (0 no effect, 100 complete control)
# How it was run: as §1
# [4] = system: Ryegrass, Italian (Italian ryegrass, Lolium multiflorum); assay: Test A preemergence, Ryegrass, Italian; conditions: Preemergence; for Ryegrass, Italian plant response rating: visual injury on 0 to 100 scale (0 no effect, 100 complete control), approximately 10 days; for Plant response rating, Ryegrass, Italian: 0 to 100 scale (0 no effect, 100 complete control)
# How it was run: as §1
# [5] = system: Foxtail, Giant (giant foxtail, Setaria faberi); assay: Test A preemergence, Foxtail, Giant; conditions: Preemergence; for Foxtail, Giant plant response rating: visual injury on 0 to 100 scale (0 no effect, 100 complete control), approximately 10 days; for Plant response rating, Foxtail, Giant: 0 to 100 scale (0 no effect, 100 complete control)
# How it was run: as §1
# [6] = system: pigweed (Amaranthus retroflexus); assay: Test A preemergence, pigweed; conditions: for Pigweed plant response rating: visual injury on 0 to 100 scale (0 no effect, 100 complete control), approximately 10 days; for Plant response rating, Pigweed: 0 to 100 scale (0 no effect, 100 complete control)
# How it was run: (§2)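 Preemergence: seeded pots of loam plus sand received a directed soil spray. Postemergence: seedlings at one to two leaves, 2 to 10 cm high, were oversprayed. Each compound was formulated in a non-phytotoxic solvent mix that included a surfactant.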
# [7] = system: barnyardgrass (Echinochloa crus-galli); assay: Test A postemergence, barnyardgrass; conditions: Postemergence, 0 to 100 scale (0 no effect, 100 complete control); for Barnyardgrass plant response rating: visual injury vs untreated controls after approx. 10 days
# How it was run: as §2
# kochia (Bassia scoparia) [8] = assay: Test A postemergence, kochia; conditions: Postemergence, 0 to 100 scale (0 no effect, 100 complete control); for Kochia plant response rating: visual injury vs untreated controls after approx. 10 days
# How it was run: as §1
# [9] = system: ragweed (common ragweed, Ambrosia artemisiifolia); assay: Test A postemergence, ragweed; conditions: Postemergence, 0 to 100 scale (0 no effect, 100 complete control); for Ragweed plant response rating: visual injury vs untreated controls after approx. 10 days
# How it was run: as §1
# [10] = system: Ryegrass, Italian (Italian ryegrass, Lolium multiflorum); assay: Test A postemergence, Ryegrass, Italian; conditions: Postemergence, 0 to 100 scale (0 no effect, 100 complete control); for Ryegrass, Italian plant response rating: visual injury vs untreated controls after approx. 10 days
# How it was run: as §1
# [11] = system: Foxtail, Giant (giant foxtail, Setaria faberi); assay: Test A postemergence, Foxtail, Giant; conditions: Postemergence, 0 to 100 scale (0 no effect, 100 complete control); for Foxtail, Giant plant response rating: visual injury vs untreated controls after approx. 10 days
# How it was run: as §1
# [12] = system: pigweed (Amaranthus retroflexus); assay: Test A postemergence, pigweed; conditions: Postemergence, 0 to 100 scale (0 no effect, 100 complete control); for Pigweed plant response rating: visual injury vs untreated controls after approx. 10 days
# How it was run: as §1
# [13] = system: wheat (Triticum aestivum); assay: Test A postemergence, wheat; conditions: Postemergence, 0 to 100 scale (0 no effect, 100 complete control); for Wheat plant response rating: visual injury vs untreated controls after approx. 10 days
# How it was run: as §2
# corn (Zea mays) = assay: Test A postemergence, corn; conditions: Postemergence, 0 to 100 scale (0 no effect, 100 complete control); for Corn plant response rating: visual injury vs untreated controls after approx. 10 days
# How it was run: as §1
# [14] = system: blackgrass (Alopecurus myosuroides); assay: Test A postemergence, blackgrass; conditions: Postemergence, 0 to 100 scale (0 no effect, 100 complete control); for Blackgrass plant response rating: visual injury vs untreated controls after approx. 10 days
# How it was run: as §1
# [15] = system: galium (catchweed bedstraw, Galium aparine); assay: Test A postemergence, galium; conditions: Postemergence, 0 to 100 scale (0 no effect, 100 complete control); for Galium plant response rating: visual injury vs untreated controls after approx. 10 days
# How it was run: as §2
# [16] = 125 g ai/ha, visual injury approx. 10 days
# [17] = 125 g ai/ha, visual injury, approx. 10 days
# [18] = 500 g ai/ha, visual injury, approx. 10 days
Compound,Barnyardgrass plant response rating ([1]; 125 g ai/ha),"Plant response rating, Barnyardgrass ([1]; 500 g ai/ha)",Kochia plant response rating (kochia (Bassia scoparia) [2]; 125 g ai/ha),"Plant response rating, Kochia (kochia (Bassia scoparia) [2]; 500 g ai/ha)","Plant response rating, Ragweed ([3]; 500 g ai/ha)","Ryegrass, Italian plant response rating ([4]; 125 g ai/ha)","Plant response rating, Ryegrass, Italian ([4]; 500 g ai/ha)","Foxtail, Giant plant response rating ([5]; 125 g ai/ha)","Plant response rating, Foxtail, Giant ([5]; 500 g ai/ha)",Pigweed plant response rating ([6]; 125 g ai/ha),"Plant response rating, Pigweed ([6]; 500 g ai/ha)",Barnyardgrass plant response rating ([7]; 500 g ai/ha),Kochia plant response rating (kochia (Bassia scoparia) [8]; 500 g ai/ha),Ragweed plant response rating ([9]; 500 g ai/ha),"Ryegrass, Italian plant response rating ([10]; 500 g ai/ha)","Foxtail, Giant plant response rating ([11]; 500 g ai/ha)",Pigweed plant response rating ([12]; 500 g ai/ha),Wheat plant response rating ([13]; 500 g ai/ha),Corn plant response rating (corn (Zea mays); 500 g ai/ha),Blackgrass plant response rating ([14]; 500 g ai/ha),further results
Cc1cc(Cl)c(C2=NOC3(CCCC3)C2)cc1NS(=O)(=O)C(F)(F)F [Compound 185],70,100,0,0,70,50,100,50,100,50,80,20,10,40,0,0,40,0,0,10,"Ragweed plant response rating ([3]; 125 g ai/ha): 20; Plant response rating, Barnyardgrass ([7]; 125 g ai/ha): 0; Plant response rating, Kochia (kochia (Bassia scoparia) [8]; 125 g ai/ha): 0; Plant response rating, Ragweed ([9]; 125 g ai/ha): 0; Plant response rating, Ryegrass, Italian ([10]; 125 g ai/ha): 0; Plant response rating, Foxtail, Giant ([11]; 125 g ai/ha): 0; Plant response rating, Pigweed ([12]; 125 g ai/ha): 0; Plant response rating, Wheat ([13]; 125 g ai/ha): 0; Plant response rating, Corn (corn (Zea mays); 125 g ai/ha): 0; Plant response rating, Blackgrass ([14]; 125 g ai/ha): 0; Plant response rating, Galium ([15]; 125 g ai/ha): 30; Galium plant response rating ([15]; 500 g ai/ha): 70"
Cc1ccc(-c2ccnn(C)c2=O)cc1NS(=O)(=O)C(F)(F)F [Compound 59],0,90,40,90,30,0,60,20,70,30,60,80,70,60,60,70,60,40,40,70,"Ragweed plant response rating ([3]; 125 g ai/ha): 0; Plant response rating, Barnyardgrass [7, 16]: 0; Plant response rating, Kochia (kochia (Bassia scoparia) [8]; [16]): 50; Plant response rating, Ragweed [9, 16]: 20; Plant response rating, Ryegrass, Italian [10, 16]: 0; Plant response rating, Foxtail, Giant [11, 16]: 10; Plant response rating, Pigweed [12, 16]: 0; Plant response rating, Wheat [13, 16]: 0; Plant response rating, Corn (corn (Zea mays); [16]): 10; Plant response rating, Blackgrass [14, 16]: 0; Plant response rating, Galium [15, 16]: 80; Galium plant response rating ([15]; 500 g ai/ha): 90"
Cc1cc(Cl)c(N(S(=O)(=O)C(F)(F)F)S(=O)(=O)C(F)(F)F)cc1C1=NOC2(CCCCC2)C1 [Compound 217],,100,,90,90,,100,,100,,100,30,70,70,0,0,80,30,20,20,"Plant response rating, Barnyardgrass [1, 17]: 90; Plant response rating, Kochia (kochia (Bassia scoparia) [2]; [17]): 70; Plant response rating, Ragweed [3, 17]: 60; Plant response rating, Ryegrass, Italian [4, 17]: 80; Plant response rating, Foxtail, Giant [5, 17]: 90; Plant response rating, Pigweed [6, 17]: 70; Plant response rating, Barnyardgrass ([7]; 125 g ai/ha): 0; Plant response rating, Kochia (kochia (Bassia scoparia) [8]; 125 g ai/ha): 50; Plant response rating, Ragweed ([9]; 125 g ai/ha): 60; Plant response rating, Ryegrass, Italian ([10]; 125 g ai/ha): 0; Plant response rating, Foxtail, Giant ([11]; 125 g ai/ha): 0; Plant response rating, Pigweed ([12]; 125 g ai/ha): 40; Plant response rating, Wheat ([13]; 125 g ai/ha): 0; Plant response rating, Corn (corn (Zea mays); 125 g ai/ha): 0; Plant response rating, Blackgrass ([14]; 125 g ai/ha): 0; Plant response rating, Galium ([15]; 125 g ai/ha): 80; Galium plant response rating ([15]; 500 g ai/ha): 90"
O=C(c1ccc(Cl)c(NS(=O)(=O)C(F)(F)F)c1)N1CCOCC1 [Compound 15],0,0,0,80,,30,30,10,70,60,70,,,,,,,,,,"Plant response rating, Barnyardgrass [7, 16]: 0; Plant response rating, Barnyardgrass [7, 18]: 50; Plant response rating, Kochia (kochia (Bassia scoparia) [8]; [16]): 40; Plant response rating, Kochia (kochia (Bassia scoparia) [8]; [18]): 70; Plant response rating, Ragweed [9, 16]: 70; Plant response rating, Ragweed [9, 18]: 80; Plant response rating, Ryegrass, Italian [10, 16]: 30; Plant response rating, Ryegrass, Italian [10, 18]: 0; Plant response rating, Foxtail, Giant [11, 16]: 0; Plant response rating, Foxtail, Giant [11, 18]: 50; Plant response rating, Pigweed [12, 16]: 0; Plant response rating, Pigweed [12, 18]: 30; Plant response rating, Wheat [13, 16]: 0; Plant response rating, Wheat [13, 18]: 0; Plant response rating, Corn (corn (Zea mays); [16]): 0; Plant response rating, Corn (corn (Zea mays); [18]): 0; Plant response rating, Blackgrass [14, 16]: 0; Plant response rating, Blackgrass [14, 18]: 30; Plant response rating, Galium [15, 16]: 50; Plant response rating, Galium [15, 18]: 60"
